Patent publication US12281079B2, “Quinoline derivatives, processes for their preparation and uses thereof for the treatment of cancer” (Lead Discovery Center GmbH, priority 2019, dated 2025)
Counter-ions that a name gives are not always drawn.

Key:
[1] = tested on: mitochondrial transcription (7S RNA) in HeLa cells; test: Quantitative real time-PCR assay of inhibition of mitochondrial transcription (7S RNA) in HeLa cells; format: cell-based; conditions: Homo sapiens, 4 h compound incubation, according to Example 5, read-out: cellular qPCR assay
Method in brief: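 HeLa cells were exposed to compound dilution series or DMSO for 4 h, then RNA was extracted, normalized and reverse-transcribed. TaqMan qRT-PCR measured short-lived 7S RNA, with POLRMT as nuclear-transcription readout and TBP as housekeeping gene. Biological triplicates were analyzed by ΔΔCt and reported as Rq % (2−ΔΔCt).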

[2] = target: mitochondrial RNA polymerase (POLRMT) (Mus musculus, UniProt Q8BKF1); test: Homogeneous TR-FRET assay for mitochondrial transcription activity; format: biochemical; conditions: homogeneous TR-FRET assay according to Example 4
Method in brief: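 Read-out is TR-FRET (ex 340, em 665 nm) from two adjacent labelled DNA probes annealing to the 407 bp transcript after EDTA/700 mM NaCl stop. Reaction: murine POLRMT, TFAM, TFB2M and LSP plasmid template, compound 10 μM or serial dilution, 10 min rt preincubation, 500 μM each nucleotide, 2 h rt.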

Chain of mitochondrial RNA polymerase (POLRMT) (Q8BKF1 42-1207): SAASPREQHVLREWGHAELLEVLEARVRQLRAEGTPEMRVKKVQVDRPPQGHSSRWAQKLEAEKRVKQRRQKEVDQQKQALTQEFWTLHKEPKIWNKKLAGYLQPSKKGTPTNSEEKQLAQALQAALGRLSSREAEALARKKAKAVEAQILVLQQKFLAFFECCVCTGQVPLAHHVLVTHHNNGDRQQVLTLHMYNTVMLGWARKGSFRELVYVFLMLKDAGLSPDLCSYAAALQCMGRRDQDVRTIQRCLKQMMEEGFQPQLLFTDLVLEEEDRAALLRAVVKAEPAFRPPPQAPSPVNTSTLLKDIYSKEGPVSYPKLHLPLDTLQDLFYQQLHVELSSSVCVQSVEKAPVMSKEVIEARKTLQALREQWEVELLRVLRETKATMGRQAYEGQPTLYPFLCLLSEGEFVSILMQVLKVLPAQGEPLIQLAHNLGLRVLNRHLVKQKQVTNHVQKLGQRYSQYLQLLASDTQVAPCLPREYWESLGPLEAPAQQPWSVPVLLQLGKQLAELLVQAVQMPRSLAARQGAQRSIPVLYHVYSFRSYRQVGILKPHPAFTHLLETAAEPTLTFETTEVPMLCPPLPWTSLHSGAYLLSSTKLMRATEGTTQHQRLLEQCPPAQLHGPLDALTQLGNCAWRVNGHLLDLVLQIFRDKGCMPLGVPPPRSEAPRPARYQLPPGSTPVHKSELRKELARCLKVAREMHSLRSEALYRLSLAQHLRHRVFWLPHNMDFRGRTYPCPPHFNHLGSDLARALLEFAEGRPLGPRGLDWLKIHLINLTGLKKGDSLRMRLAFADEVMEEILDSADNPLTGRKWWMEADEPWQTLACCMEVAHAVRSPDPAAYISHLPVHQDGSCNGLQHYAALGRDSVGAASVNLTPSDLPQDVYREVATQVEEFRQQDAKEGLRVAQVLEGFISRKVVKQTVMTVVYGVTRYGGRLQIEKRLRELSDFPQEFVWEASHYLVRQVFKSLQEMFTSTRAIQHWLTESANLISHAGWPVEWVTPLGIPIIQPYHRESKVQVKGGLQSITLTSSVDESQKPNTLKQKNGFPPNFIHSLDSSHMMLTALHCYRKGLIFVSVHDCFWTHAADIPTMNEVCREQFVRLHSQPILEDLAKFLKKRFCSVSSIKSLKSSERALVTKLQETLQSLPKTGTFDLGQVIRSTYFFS

C[C@@H](Oc1ccc2c(-c3ccc(F)cc3Cl)ccnc2c1)C(=O)NC(C)(C)C [Compound 47, (2R)-N-tert-butyl-2-[[4-(2-chloro-4-fluoro-phenyl)-7-quinolyl]oxy]propanamide]
IC50 [1]: 10 to 50 nM
IC50 [2]: 100 to 1000 nM

CC(C)NC(=O)[C@@H](C)Oc1ccc2c(-c3ccccc3Cl)ccnc2c1 [Compound 48, (2R)-2-[[4-(2-chlorophenyl)-7-quinolyl]oxy]-N-isopropyl-propanamide]
IC50 [1]: 50 to 500 nM
IC50 [2]: 100 to 1000 nM

CCOC(=O)C[C@H]1CCCN(C(=O)[C@@H](C)Oc2ccc3c(-c4ccccc4C)cc(C)nc3c2)C1 [Compound 49, ethyl 2-[(3R)-1-[(2R)-2-[[2-methyl-4-(o-tolyl)-7-quinolyl]oxy]propanoyl]-3-piperidyl]acetate]
IC50 [1]: 10 to 50 nM
IC50 [2]: 100 to 1000 nM

CCOC(=O)[C@@H](C)Oc1ccc2c(-c3ccccc3Cl)ccnc2c1 [Compound 50, ethyl (2R)-2-[[4-(2-chlorophenyl)-7-quinolyl]oxy]propanoate]
IC50 [1]: 10 to 50 nM
IC50 [2]: 100 to 1000 nM

Cc1ccccc1-c1cc(Cl)nc2cc(O[C@H](C)C(=O)N3CCC[C@H](C(N)=O)C3)ccc12 [Compound 52, (3S)-1-[(2R)-2-[[2-chloro-4-(o-tolyl)-7-quinolyl]oxy]propanoyl]piperidine-3-carboxamide]
IC50 [1]: 10 to 50 nM
IC50 [2]: 100 to 1000 nM

C[C@@H](Oc1ccc2c(-c3ccccc3Cl)ccnc2c1)C(=O)N1CCCCC1 [Compound 53, (2R)-2-[[4-(2-chlorophenyl)-7-quinolyl]oxy]-1-(1-piperidyl)propan-1-one]
IC50 [1]: 10 to 50 nM
IC50 [2]: 100 to 1000 nM

C[C@@H](Oc1ccc2c(-c3ccc(F)cc3Cl)ccnc2c1)C(=O)N1CCNCC1 [Compound 55, (R)-2-((4-(2-chloro-4-fluorophenyl)quinolin-7 yl)oxy)-1-(piperazin-1 yl)propan-1-one 2×TFA salt]
IC50 [1]: 50 to 500 nM
IC50 [2]: 100 to 1000 nM

C[C@@H](Oc1ccc2c(-c3ccc(F)cc3Cl)cc(Cl)nc2c1)C(=O)N1CCC[C@H](CC(=O)O)C1 [Compound 56, 2-[(3R)-1-[(2R)-2-[[2-chloro-4-(2-chloro-4-fluoro-phenyl)-7-quinolyl]oxy]propanoyl]-3-piperidyl]acetic acid]
IC50 [1]: 50 to 500 nM
IC50 [2]: 100 to 1000 nM

Cc1cc(F)ccc1-c1cc(Cl)nc2cc(O[C@H](C)C(=O)N3CCC[C@H](CC(=O)O)C3)ccc12 [Compound 57, 2-[(3R)-1-[(2R)-2-[[2-chloro-4-(4-fluoro-2-methyl-phenyl)-7-quinolyl]oxy]propanoyl]-3-piperidyl]acetic acid]
IC50 [1]: 50 to 500 nM
IC50 [2]: 100 to 1000 nM

Cc1cc(-c2ccc(F)cc2Cl)c2ccc(O[C@H](C)C(=O)N3CCC[C@H](C(=O)O)C3)cc2n1 [Compound 59, (3S)-1-[(2R)-2-[[4-(2-chloro-4-fluoro-phenyl)-2-methyl-7-quinolyl]oxy]propanoyl]piperidine-3-carboxylic acid]
IC50 [1]: 10 to 50 nM
IC50 [2]: 100 to 1000 nM

C[C@@H](Oc1ccc2c(-c3ccc(F)cc3Cl)ccnc2c1)C(=O)Nc1ccc(C(=O)O)cc1 [Compound 60, 4-[[(2R)-2-[[4-(2-chloro-4-fluoro-phenyl)-7-quinolyl]oxy]propanoyl]amino]benzoic acid]
IC50 [1]: 50 to 500 nM
IC50 [2]: 100 to 1000 nM

CC(C)NC(=O)[C@@H](C)Oc1ccc2c(-c3ccc(F)cc3Cl)ccnc2c1 [Compound 61, (2R)-2-[[4-(2-chloro-4-fluoro-phenyl)-7-quinolyl]oxy]-N-isopropyl-propanamide]
IC50 [1]: 50 to 500 nM
IC50 [2]: 100 to 1000 nM

C[C@@H](Oc1ccc2c(-c3ccc(F)cc3Cl)ccnc2c1)C(=O)N1CCNC(=O)C1 [Compound 63, (R)-4-(2-((4-(2-chloro-4-fluorophenyl)quinolin-7-yl)oxy)propanoyl)piperazin-2-one]
IC50 [1]: 50 to 500 nM
IC50 [2]: 100 to 1000 nM

C[C@@H](Oc1ccc2c(-c3ccc(F)cc3Cl)cc(Cl)nc2c1)C(=O)N1CCC[C@H](C(=O)O)C1 [Compound 64, (3S)-1-[(2R)-2-[[2-chloro-4-(2-chloro-4-fluoro-phenyl)-7-quinolyl]oxy]propanoyl]piperidine-3-carboxylic acid]
IC50 [1]: 50 to 500 nM
IC50 [2]: 100 to 1000 nM

C[C@@H](Oc1ccc2c(-c3ccccc3)ccnc2c1)C(=O)N1CCC[C@H](C(=O)O)C1 [Compound 66, (3S)-1-[(2R)-2-[(4-phenyl-7-quinolyl)oxy]propanoyl]piperidine-3-carboxylic acid]
IC50 [1]: 10 to 50 nM
IC50 [2]: 100 to 1000 nM

CNC(=O)C[C@H]1CCCN(C(=O)[C@@H](C)Oc2ccc3c(-c4ccccc4Cl)cc(Cl)nc3c2)C1 [Compound 68, 2-[(3R)-1-[(2R)-2-[[2-chloro-4-(2-chlorophenyl)-7-quinolyl]oxy]propanoyl]-3-piperidyl]-N-methyl-acetamide]
IC50 [1]: 50 to 500 nM
IC50 [2]: 100 to 1000 nM

Cc1cc(-c2ccccc2C)c2ccc(O[C@H](C)C(=O)N3CCC[C@H](CC(=O)O)C3)cc2n1 [Compound 69, 2-[(3R)-1-[(2R)-2-[[2-methyl-4-(o-tolyl)-7-quinolyl]oxy]propanoyl]-3-piperidyl]acetic acid]
IC50 [1]: 10 to 50 nM
IC50 [2]: 100 to 1000 nM

C[C@@H](Oc1ccc2c(-c3ccccc3Cl)cc(Cl)nc2c1)C(=O)N1CCN(C(=O)C2CC2)CC1 [Compound 70, (2R)-2-[[2-chloro-4-(2-chlorophenyl)-7-quinolyl]oxy]-1-[4-(cyclopropanecarbonyl)piperazin-1-yl]propan-1-one]
IC50 [1]: 500 to 5000 nM
IC50 [2]: 100 to 1000 nM

Cc1ccccc1-c1cc(Cl)nc2cc(O[C@H](C)C(=O)OC(C)(C)C)ccc12 [Compound 73, tert-butyl (2R)-2-[[2-chloro-4-(o-tolyl)-7-quinolyl]oxy]propanoate]
IC50 [1]: 50 to 500 nM
IC50 [2]: 100 to 1000 nM

CCOC(=O)C[C@H]1CCCN(C(=O)[C@@H](C)Oc2ccc3c(-c4ccc(F)cc4Cl)cc(C)nc3c2)C1 [Compound 74, ethyl 2-[(3R)-1-[(2R)-2-[[4-(2-chloro-4-fluoro-phenyl)-2-methyl-7-quinolyl]oxy]propanoyl]-3-piperidyl]acetate]
IC50 [1]: 50 to 500 nM
IC50 [2]: 100 to 1000 nM

C[C@@H](Oc1ccc2c(-c3ccccc3Cl)cc(Cl)nc2c1)C(=O)N1CCC[C@H](C(N)=O)C1 [Compound 76, (3S)-1-[(2R)-2-[[2-chloro-4-(2-chlorophenyl)-7-quinolyl]oxy]propanoyl]piperidine-3-carboxamide]
IC50 [1]: 10 to 50 nM
IC50 [2]: 100 to 1000 nM

C[C@@H](Oc1ccc2c(-c3ccc(F)cc3Cl)ccnc2c1)C(=O)NC1CC1 [Compound 77, (2R)-2-[[4-(2-chloro-4-fluoro-phenyl)-7-quinolyl]oxy]-N-cyclopropyl-propanamide]
IC50 [1]: 50 to 500 nM
IC50 [2]: 100 to 1000 nM

C[C@H](Oc1ccc2c(-c3ccccc3Cl)ccnc2c1)C(=O)N1CCC[C@H](C(=O)O)C1 [Compound 78, (3S)-1-[(2S)-2-[[4-(2-chlorophenyl)-7-quinolyl]oxy]propanoyl]piperidine-3-carboxylic acid]
IC50 [1]: 500 to 5000 nM
IC50 [2]: 100 to 1000 nM

Cc1sccc1-c1ccnc2cc(O[C@H](C)C(=O)N3CCC[C@H](CC(=O)O)C3)ccc12 [Compound 79, 2-[(3R)-1-[(2R)-2-[[4-(2-methyl-3-thienyl)-7-quinolyl]oxy]propanoyl]-3-piperidyl]acetic acid]
IC50 [1]: 50 to 500 nM
IC50 [2]: 100 to 1000 nM

C[C@@H](Oc1ccc2c(-c3ccc(F)cc3Cl)cc(Cl)nc2c1)C(=O)N1CCC[C@H](C(N)=O)C1 [Compound 81, (3S)-1-[(2R)-2-[[2-chloro-4-(2-chloro-4-fluoro-phenyl)-7-quinolyl]oxy]propanoyl]piperidine-3-carboxamide]
IC50 [1]: 50 to 500 nM
IC50 [2]: 1000 to 10000 nM

C[C@@H](Oc1ccc2c(-c3ccccc3Cl)cc(Cl)nc2c1)C(=O)N1CCC[C@H](CC(=O)O)C1 [Compound 83, 2-[(3R)-1-[(2R)-2-[[2-chloro-4-(2-chlorophenyl)-7-quinolyl]oxy]propanoyl]-3-piperidyl]acetic acid]
IC50 [1]: 500 to 5000 nM
IC50 [2]: 1000 to 10000 nM

CC(Oc1ccc2c(-c3ccccc3Cl)ccnc2c1)C(=O)N(C)C (stereo not shown) [Compound 86, 2-[[4-(2-chlorophenyl)-7-quinolyl]oxy]-N,N-dimethyl-propanamide]
IC50 [1]: 50 to 500 nM
IC50 [2]: 1000 to 10000 nM

C[C@@H](Oc1ccc2c(-c3ccccc3Cl)ccnc2c1)C(=O)N(C)C [Compound 88, (2R)-2-[[4-(2-chlorophenyl)-7-quinolyl]oxy]-N,N-dimethyl-propanamide]
IC50 [1]: 50 to 500 nM
IC50 [2]: 1000 to 10000 nM

C[C@@H](Oc1ccc2c(-c3ccc(F)cc3Cl)ccnc2c1)C(=O)Nc1ccncc1 [Compound 95, (2R)-2-[[4-(2-chloro-4-fluoro-phenyl)-7-quinolyl]oxy]-N-(4-pyridyl)propanamide]
IC50 [1]: 50 to 500 nM
IC50 [2]: 100 to 1000 nM

C[C@@H](Oc1ccc2c(-c3ccccc3Cl)cc(Cl)nc2c1)C(=O)N1CCCCC1 [Compound 99, (2R)-2-[[2-chloro-4-(2-chlorophenyl)-7-quinolyl]oxy]-1-(1-piperidyl)propan-1-one]
IC50 [1]: 500 to 5000 nM
IC50 [2]: 1000 to 10000 nM

Cc1cc(-c2ccc(F)cc2Cl)c2ccc(O[C@H](C)C(=O)N3CCC[C@H](CC(=O)O)C3)cc2n1 [Compound 101, 2-[(3R)-1-[(2R)-2-[[4-(2-chloro-4-fluoro-phenyl)-2-methyl-7-quinolyl]oxy]propanoyl]-3-piperidyl]acetic acid]
IC50 [1]: 500 to 5000 nM
IC50 [2]: 1000 to 10000 nM

C[C@@H](Oc1ccc2c(-c3ccccc3Cl)cc(Cl)nc2c1)C(=O)N1CCNCC1 [Compound 104, (2R)-2-[[2-chloro-4-(2-chlorophenyl)-7-quinolyl]oxy]-1-piperazin-1-yl-propan-1-one]
IC50 [1]: 50 to 500 nM
IC50 [2]: 1000 to 10000 nM
